Experimental data reported in paper PMC9706563, “Development of Macrocyclic PRMT5–Adaptor Protein Interaction Inhibitors” (Journal of Medicinal Chemistry, 2022).

The molecules below were run against T1, PRMT5-MEP50 (Homo sapiens, UniProt O14744) (assay: Direct binding fluorescence polarization (FP) assay of FITC-labeled peptides). Details: FITC-labeled peptide 1 nM, PRMT5-MEP50 titrated, read-out: KD.
T1 construct: The compounds were tested by means of FP with the full-length PRMT5-MEP50 complex; made in house
T1 sequence (O14744 whole entry): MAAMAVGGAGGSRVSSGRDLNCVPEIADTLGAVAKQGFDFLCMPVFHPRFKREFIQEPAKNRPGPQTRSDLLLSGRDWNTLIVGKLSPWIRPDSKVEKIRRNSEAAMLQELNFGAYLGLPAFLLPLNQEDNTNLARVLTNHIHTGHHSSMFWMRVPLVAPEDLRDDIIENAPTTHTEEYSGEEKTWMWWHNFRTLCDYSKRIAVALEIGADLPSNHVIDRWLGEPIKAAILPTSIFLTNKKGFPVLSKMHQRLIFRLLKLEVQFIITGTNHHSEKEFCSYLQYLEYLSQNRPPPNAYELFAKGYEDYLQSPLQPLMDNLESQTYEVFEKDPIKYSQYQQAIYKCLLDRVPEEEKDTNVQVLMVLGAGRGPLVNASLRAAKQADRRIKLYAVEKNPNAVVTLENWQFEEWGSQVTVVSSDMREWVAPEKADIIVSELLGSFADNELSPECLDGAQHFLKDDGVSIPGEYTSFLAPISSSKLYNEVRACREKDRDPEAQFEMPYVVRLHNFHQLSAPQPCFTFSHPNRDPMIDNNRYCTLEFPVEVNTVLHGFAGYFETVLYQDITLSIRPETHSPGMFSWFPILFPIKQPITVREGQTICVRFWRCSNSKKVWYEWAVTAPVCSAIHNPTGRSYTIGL
T1 sequence (Q9BQA1 whole entry partner): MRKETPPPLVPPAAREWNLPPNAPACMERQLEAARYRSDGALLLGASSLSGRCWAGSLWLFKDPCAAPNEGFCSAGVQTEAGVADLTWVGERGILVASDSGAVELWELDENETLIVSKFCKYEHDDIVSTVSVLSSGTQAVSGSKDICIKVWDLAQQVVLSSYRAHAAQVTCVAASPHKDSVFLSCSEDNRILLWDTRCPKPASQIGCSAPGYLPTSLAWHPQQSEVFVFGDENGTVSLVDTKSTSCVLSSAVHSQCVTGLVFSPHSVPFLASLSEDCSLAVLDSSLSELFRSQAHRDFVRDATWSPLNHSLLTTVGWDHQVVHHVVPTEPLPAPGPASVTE
Experimental: The assay was performed in a buffer of 50 mM 4-(2-hydroxyethyl)-1-piperazineethanesulfonic acid (HEPES), 250 mM NaCl, 1 mM tris(2-carboxyethyl)phosphine (TCEP), and 0.01% (v/v) Tween 20, pH 8.0, in black, 384-well plates with a total volume of 10 μL per well. […] The plates were incubated at room temperature for 1 to 2 h and analyzed on a plate reader using 485 nm excitation and 535 nm emission wavelength. The assay was performed in triplicate.

Question: `CC(C)[C@H](NC(=O)[C@H](CCCNC(=N)N)NC(=O)[C@H](CO)NC(=O)COCCOCCNC(=S)Nc1ccc2c(c1)C(=O)OC21c2ccc(O)cc2Oc2cc(O)ccc21)C(=O)N[C@H](C(=O)N1CCC[C@H]1C(=O)NC1CC=CC[C@@H](C(=O)N[C@@H](CC(=O)O)C(=O)N[C@@H](C)C(=O)N[C@@H](CC(=O)O)C(N)=O)NC(=O)[C@H](Cc2ccccc2)NC(=O)[C@H](CCC(N)=O)NC1=O)C(C)C` (stereo in doubt) [Compound 13] was tested. Which Kd did it give?
Answer: 719 ± 41 nM

Same assay, conditions: supplementary CSV, read-out: PRMT5-MEP50 Kd

Question: Which Kd does the source give for `CC(C)[C@H](NC(=O)[C@H](CCCNC(=N)N)NC(=O)[C@H](CO)NC(=O)COCCOCCNC(=S)Nc1ccc2c(c1)C(=O)OC21c2ccc(O)cc2Oc2cc(O)ccc21)C(=O)N[C@H](C(=O)N1CCC[C@H]1C(=O)N[C@@H]1CC=CC[C@H](C(=O)N[C@@H](CC(=O)O)C(=O)N[C@@H](C)C(=O)N[C@@H](CC(=O)O)C(N)=O)NC(=O)[C@H](Cc2ccccc2)NC(=O)[C@H](CCC(N)=O)NC1=O)C(C)C` (single isomer, unassigned) [15 (isomer 1)] here?
Answer: > 2000 nM

Question: For `CC(=O)N[C@H](C(=O)N1CCC[C@H]1C(=O)N[C@@H]1CC=CCC[C@@H](C(=O)N[C@@H](CC(=O)O)C(=O)N[C@@H](C)C(=O)N[C@@H](CC(=O)O)C(=O)N[C@@H](CCCCNC(=S)Nc2ccc3c(c2)C(=O)OC32c3ccc(O)cc3Oc3cc(O)ccc32)C(N)=O)NC(=O)[C@H](Cc2ccccc2)NC(=O)[C@H](CCC(N)=O)NC1=O)C(C)C` (single isomer, unassigned) [18 (isomer 1)], which Kd is on record?
Answer: 352 ± 49 nM

Question: Which Kd does the source give for `CC(C)[C@H](NC(=O)[C@H](CCCNC(=N)N)NC(=O)[C@H](CO)NC(=O)COCCOCCNC(=S)Nc1ccc2c(c1)C(=O)OC21c2ccc(O)cc2Oc2cc(O)ccc21)C(=O)N[C@H](C(=O)N1CCC[C@H]1C(=O)NC1CNC(=O)C[C@@H](C(=O)N[C@@H](CC(=O)O)C(=O)N[C@@H](C)C(=O)N[C@@H](CC(=O)O)C(N)=O)NC(=O)[C@H](Cc2ccccc2)NC(=O)[C@H](CCC(N)=O)NC1=O)C(C)C` (stereo in doubt) [Compound 5] here?
Answer: > 2000 nM

Question: Which Kd does the source give for `CC(C)[C@H](NC(=O)[C@H](CCCNC(=N)N)NC(=O)[C@H](CO)NC(=O)COCCOCCNC(=S)Nc1ccc2c(c1)C(=O)OC21c2ccc(O)cc2Oc2cc(O)ccc21)C(=O)N[C@H](C(=O)N1CCC[C@H]1C(=O)NC1CNC(=O)CC[C@@H](C(=O)N[C@@H](CC(=O)O)C(=O)N[C@@H](C)C(=O)N[C@@H](CC(=O)O)C(N)=O)NC(=O)[C@H](Cc2ccccc2)NC(=O)[C@H](CCC(N)=O)NC1=O)C(C)C` (stereo in doubt) [Compound 6] here?
Answer: > 2000 nM

Question: For `CC(C)[C@H](NC(=O)[C@H](CCCNC(=N)N)NC(=O)[C@H](CO)NC(=O)COCCOCCNC(=S)Nc1ccc2c(c1)C(=O)OC21c2ccc(O)cc2Oc2cc(O)ccc21)C(=O)N[C@H](C(=O)N1CCC[C@H]1C(=O)NC1CCNC(=O)C[C@@H](C(=O)N[C@@H](CC(=O)O)C(=O)N[C@@H](C)C(=O)N[C@@H](CC(=O)O)C(N)=O)NC(=O)[C@H](Cc2ccccc2)NC(=O)[C@H](CCC(N)=O)NC1=O)C(C)C` (stereo in doubt) [Compound 7], which Kd is on record?
Answer: > 2000 nM

Question: For `CC(C)[C@H](NC(=O)[C@H](CCCNC(=N)N)NC(=O)[C@H](CO)NC(=O)COCCOCCNC(=S)Nc1ccc2c(c1)C(=O)OC21c2ccc(O)cc2Oc2cc(O)ccc21)C(=O)N[C@H](C(=O)N1CCC[C@H]1C(=O)NC1CCNC(=O)CC[C@@H](C(=O)N[C@@H](CC(=O)O)C(=O)N[C@@H](C)C(=O)N[C@@H](CC(=O)O)C(N)=O)NC(=O)[C@H](Cc2ccccc2)NC(=O)[C@H](CCC(N)=O)NC1=O)C(C)C` (stereo in doubt) [Compound 8], which Kd is on record?
Answer: > 2000 nM

Question: How did the Kd turn out when `CC(=O)N[C@H](C(=O)N1CCC[C@H]1C(=O)NC1CC=CC[C@@H](C(=O)N[C@@H](CC(=O)O)C(=O)N[C@@H](C)C(=O)N[C@@H](CC(=O)O)C(=O)N[C@@H](CCCCNC(=S)Nc2ccc3c(c2)C(=O)OC32c3ccc(O)cc3Oc3cc(O)ccc32)C(N)=O)NC(=O)[C@H](Cc2ccccc2)NC(=O)[C@H](CCC(N)=O)NC1=O)C(C)C` (stereo in doubt) [Compound 17] was run?
Answer: 452 ± 1 nM
